According to patent US4680382A, “Analogues of actinomycin D” (priority 1986, dated 1987):
*1 amine or outer side, *2 acyl side, *3 side chain or, on linkers, in order; H or OH if unused. Where a SMILES comes first, the peptide text is derived from it. Bridges are numbered along the chain shown (N, C = ends). Roman numbers before positions name the chains, in order. [ ]: non-standard residue; d: D form. Actinocin(9to1) = Cc1c2oc3c(C)ccc(C(=O)[*:1])c3nc-2c(C(=O)[*:2])c(N)c1=O; NMeV = CN[C@H](C(=O)O)C(C)C; Sar = CNCC(=O)O

How the values were obtained:
[1] = Metabolism of tritiated drugs in tumor cell homogenate (sonicated P388 cells); format: in vitro ADME, murine; conditions: tumor cell homogenate (T), 16 hr; for Percent isolated: unconverted: 37° C.
Description: A method of using tumor cell sonicates was developed to study the metabolism of the analogues of AMD. By use of sonicated cells, the dilution effects that would occur if flasks of cultured cells were used are avoided. Although the cells are disrupted by this method, their enzyme systems appear to remain active. Large numbers of tumor cells (P388 murine leukemia) were sonicated in Earle's balanced salt solution (EBSS) and were incubated with tritiated AMD and its analogues 7a and 9a (Table II) for 16 hr. In another experiment, the analogues were treated with rat hepatic microsomes at 37° C. for 6 hr in the presence of a NADPH-generating system. The metabolic products were isolated and identified with the following results (Table II). […] In the microsomes, the major metabolites were in unconjugated forms; in the tumor cell homogenates, the major identified metabolites were glucuronide and sulfate conjugated forms. It should be pointed out that in these metabolic experiments, the identification of these glucuronide and/or sulfate conjugates was made only on the basis of the disappearance of the peaks from the HPLC chromatograms upon treatment with deconjugating enzymes glucarase.
A large number of P388 cells (10^8 cells) were sonicated in Earle's balanced salt solution (EBSS) in ice. Tritiated analogues 7a, 8a and AMD, 0.4 Ci/mmol, were added and the mixtures were incubated at 37° C. for 16 hr. Drugs in EBSS without the addition of the cell sonicates served as controls. The samples were treated with urea to bring the urea concentration to 5M. The procedure helped to free all drugs that associated noncovalently with DNA. After 60 min at room temperature, the samples were centrifuged through Amicon 1053 cone filters (molecular weight cut-off approximately 25000) after adjustment of pH to 5 to facilitate extraction of unconjugated metabolites in organic solvents.
Unconjugated or uncoupled products were first extracted with ethyl acetate (step A) and aliquots of aqueous layers were treated with equal volumes of glucarase (a preparation of β-glucuronidase and sulfatase) or with buffer (control); see following section. The glucuronide and the sulfate derivatives were thus deconjugated and the freed products were extracted in ethyl acetate (step B). A highly sensitive technique for detection of a series of AMD analogues using HPLC was employed; sensitivity of this assay ranges from 50 nmol when UV-visible absorbances are used to 1 pmol when radioactive analogues of appropriate specific activities are used.
The products in the ethyl acetate extracts were analyzed by HPLC using system I. Prior to deconjugation, the above aqueous layers were examined by systems II and III, which are more suitable for the water-soluble metabolites.
The aqueous layers from step B were combined with the material which was left as residues in the cones in step A. The residues in the cones were extracted in dilute sodium hydroxide and separated from the cell debris by centrifugation (2500 rpm), and the biopolymers were precipitated from the extract with excess ethanol. The precipitated polymers, mostly protein, were lyophilized and dissolved in 0.05M Tris-HCl and were fractionated on Superfine Sephacryl S-200 and the molecular weights of the major fractions were approximated. The major parts of radioactivity were confined to high molecular weight proteins with molecular weights above 67000. The amount of the tissue-bound material was estimated from the pellets in the above centrifugation (2500 rpm). The percentages were calculated on the basis of the total radioactive materials recovered. In most cases, it was over 90%.

[2] = system: P388/S; assay: In vivo activity against P388/S (adriamycin sensitive) leukemia, Table VII; design: species or system BDF1 mice; conditions: for P388/S % ILS / P388/S tumor-free survivors/total on day 60: at optimal dose; for P388/S optimal dose: ip, days 1, 5 and 9
Description: (§1) ^a Male BDF1 mice inoculated ip: 10^6 cells inoculum, day 0.
(§2) Drugs administered in 10% dimethyl sulfoxidesaline on days 1, 5 and 9. %
(§3) ILS = percent increase in life span. Fractions in parentheses = tumorfree
(§4) survivors/total on day 60. P388/S (adriamycin sensitive) and P388/ADR
(§5) (adriamycin resistant) tumors were evaluated in the same experiment with […]

[3] = system: P388/ADR; assay: In vivo activity against P388/adriamycin-resistant leukemia; design: species or system BDF1 mice; conditions: for P388/ADR optimal dose: ip, days 1, 5 and 9
Description: as §1, §2, §3, §4, §5

[4] = system: DNA; assay: Viscometry of DNA (test for intercalative binding); conditions: increasing [ligand]/DNA base pair ratio
Description: The equilibrium binding constants (Kapp and Bapp) of the "reverse" methyl 7a and the "reverse" phenyl 8a were determined from the Scatchard plots of binding isotherms; the Scatchard plots are produced according to the previously described methods using calf-thymus DNA [Sengupta et al, Biochem. Biophys. Acta 521, 89 (1978)]. The Kapp values are 2.5×10^6 and 2.3×10^6 M^-1, respectively; corresponding Bapp values are 0.038 and 0.036. […] But, these "reverse" analogues associate with DNA less strongly; their frequency of binding is also lower compared to that of AMD. However, the "reverse" analogues fail to cause any measurable change in the ratio of the intrinsic viscosity (γ) of DNA with the increasing ratios of [ligand]/DNA base pair (r), even when low molecular weight DNAs (0.5×10^5 to 1.0×10^5) were employed.

[5] = Maximum tolerated dose (LD10) in tumor-free BDF1 male mice; format: in vivo; conditions: lethal dose for 10% normal BDF1 male mice, 21 days (LD10); ip days 1, 5 and 9
Description: (§6) These analogues were also tested in tumor-free BDF1 male mice for determination of their MTD values (Table VIII). The animals (18-22 g) were given a broad range of doses of drugs in 5% dimethyl sulfoxide-saline on days 1, 5 and 9. Drugs were administered ip and the maximum tolerated doses of agents which caused death in only 10% of the tested animals in 21 days (i.e., LD10) were recorded as MTD. […] However, the MED values of 7-hydroxy-AMD and its precursor AMD-OZL 10a are high and are seven to tenfold of the MED values of 4a and 8a. On the basis of these MED values, the therapeutic indices of 8a and 4a are 70 and 96. The therapeutic index of 2a is 13, of 10a 10, and of AMD only 4.
^c MTD (maximum tolerated dose) is the lethal dose
(milligram/kilogram) for 10% normal BDF1 male mice (18-22 g); animal
calculated from a plot of logdose vs. percent mortality.

[6] = system: P388 Leukemia; assay: Minimum effective dose and therapeutic index vs. P388 leukemia; format: in vivo; conditions: dose giving 45% increase in life span in P388 tumor bearing mice; ip days 1, 5 and 9
Description: as §6
^a Drugs administered ip once on days 1, 5 and 9 starting 1 day after
tumor implantation. Determinations were made from analysis of plotted
^b MED (minimum effective dose) is the dose (milligram/kilogram)
providing an increase in life span of 45% over control in P388 tumor

| Compound | Percent isolated: "tissue" bound [1] | Percent isolated: protein conjugates [1] | Percent isolated: unidentified metabolite [1] | Percent metabolite isolated: 4a glucuronide and/or sulfate [1] | Percent metabolite isolated: "symmetrical" AMD (4a) [1] | Percent isolated: unconverted [1] | P388/S % ILS [2] | P388/S tumor-free survivors/total on day 60 [2] | P388/S optimal dose [2] | P388/ADR % ILS ([3]; at optimal dose) | P388/ADR tumor-free survivors/total on day 60 ([3]; at optimal dose) | P388/ADR optimal dose [3] | change in intrinsic viscosity of DNA / intercalative binding by viscometry [4] | MTD (maximum tolerated dose) [5] | MED (minimum effective dose) [6] | Percent metabolite isolated: 2a glucuronide and/or sulfate [1] | Percent metabolite isolated: 7-hydroxy-AMD (2a) [1] |
| --- | --- | --- | --- | --- | --- | --- | --- | --- | --- | --- | --- | --- | --- | --- | --- | --- | --- |
| Cc1nc2c(C(=O)NC3C(=O)NC(C(C)C)C(=O)N4CCCC4C(=O)N(C)CC(=O)N(C)C(C(C)C)C(=O)OC3C)c3nc4c(C(=O)NC5C(=O)NC(C(C)C)C(=O)N6CCCC6C(=O)N(C)CC(=O)N(C)C(C(C)C)C(=O)OC5C)c(N)c(=O)c(C)c-4oc3c(C)c2o1 [7a, 7-Amino-2,9,11-trimethyl-8H-8-oxooxazolo [4,5-b]phenoxazine 4,6-bis[carbonyl-L-threonyl-D-valyl-L-prolylsarcosyl-L-N-methylvaline-(threonine hydroxyl)] lactone] | 8.8% | 5.5% | 12.7% | 17.5% | 15.5% | 40% |  |  |  |  |  |  |  |  |  |  |  |
| Cc1c2oc3c(C)c(O)c(N)c(C(=O)NC4C(=O)NC(C(C)C)C(=O)N5CCCC5C(=O)N(C)CC(=O)N(C)C(C(C)C)C(=O)OC4C)c3nc-2c(C(=O)NC2C(=O)NC(C(C)C)C(=O)N3CCCC3C(=O)N(C)CC(=O)N(C)C(C(C)C)C(=O)OC2C)c(N)c1=O (stereo not drawn) [4a, 7-Hydroxy-8-amino-actinomycin D] |  |  |  |  |  |  | 382% | 4/8 | 0.6 mg/kg | 176% | 3/8 | 1.2 mg/kg | lack of intercalative binding | 2.40 milligram/kilogram | 0.025 milligram/kilogram |  |  |
| Cc1nc2c(C(=O)NC3C(=O)NC(C(C)C)C(=O)N4CCCC4C(=O)N(C)CC(=O)N(C)C(C(C)C)C(=O)OC3C)c3nc4c(C(=O)NC5C(=O)NC(C(C)C)C(=O)N6CCCC6C(=O)N(C)CC(=O)N(C)C(C(C)C)C(=O)OC5C)cc(=O)c(C)c-4oc3c(C)c2o1 (stereo not drawn) [9a] | 7.5% | 5.5% | 46.3% |  |  | 20% |  |  |  |  |  |  |  |  |  | 12.2% | 8.5% |
| Cc1c2oc3c(C)ccc(C(=O)N[C@@H]4C(=O)N[C@H](C(C)C)C(=O)N5CCC[C@H]5C(=O)N(C)CC(=O)N(C)[C@@H](C(C)C)C(=O)O[C@@H]4C)c3nc-2c(C(=O)N[C@@H]2C(=O)N[C@H](C(C)C)C(=O)N3CCC[C@H]3C(=O)N(C)CC(=O)N(C)[C@@H](C(C)C)C(=O)O[C@@H]2C)c(N)c1=O [AMD, Actinomycin D] (I: T[dV]P[Sar][NMeV] / II: T[dV]P[Sar][NMeV]; ester I:1-I:C, II:1-II:C; linker I:N-II:N via Actinocin(9to1)) |  |  |  |  |  | 100% | 132% | 1/8 | 0.25 mg/kg | 22% |  | 0.25 mg/kg | steady rise in the value of γ | 0.25 milligram/kilogram | 0.0625 milligram/kilogram |  |  |
